This note sets out measurements from US20220324835A1 (Nurix Therapeutics, Inc., priority 2018, published 2022).

Molecules are shown by their SMILES.

Assay [1] deals with T1, Cbl-b (Homo sapiens, UniProt Q13191). As to the kind of experiment: Cbl-b inhibition assay (Cbl-b activity assay, FRET, Biological Example 1; 100 mM NaCl, 60 nM Src kinase). The class given is biochemical. Conditions: upper bound stated in text lists; read-out: IC50 values in the Cbl-b inhibition assay of Biological Example 1. The gist of the method: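 Inhibition is read as loss of FRET signal. The signal arises when Src-phosphorylated, N-terminal biotinylated Avi-Cbl-b (captured by streptavidin-terbium) binds UbcH5B carrying covalently linked Bodipy-Fluorescein-tagged ubiquitin.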
T1 sequence (Q13191 36-427): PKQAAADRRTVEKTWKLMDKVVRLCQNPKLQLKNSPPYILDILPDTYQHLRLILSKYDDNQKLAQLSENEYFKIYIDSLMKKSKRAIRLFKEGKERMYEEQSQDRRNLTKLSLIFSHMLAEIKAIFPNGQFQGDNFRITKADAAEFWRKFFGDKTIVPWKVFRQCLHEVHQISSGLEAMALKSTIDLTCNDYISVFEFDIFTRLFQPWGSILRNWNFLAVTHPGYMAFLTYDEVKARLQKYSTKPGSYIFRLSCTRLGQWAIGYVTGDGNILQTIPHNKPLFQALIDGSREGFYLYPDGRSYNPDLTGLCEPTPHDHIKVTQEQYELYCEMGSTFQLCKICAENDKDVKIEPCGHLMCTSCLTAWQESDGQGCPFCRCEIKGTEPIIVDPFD

Assay [2] concerns T-cell. As to the kind of experiment: IL-2 secretion from T-cells co-stimulated with anti-CD3 and anti-CD28 antibody (Biological Example 2). The class given is cell-based, human. The note with it: Homo sapiens, T-cell, read-out: IL-2 secretion Anti-CD3/Anti-CD28 stimulation; for fold induction at 0.3 µM: 0.3 μM Cbl-b inhibitor; for fold induction at 1 µM: 1 μM Cbl-b inhibitor; for fold induction at 4 µM: 4 μM Cbl-b inhibitor. The text has this: (§1) Methods for experimentally determining increased T-cell activation, increased T-cell proliferation, decreased T-cell exhaustion, and/or decreased T-cell tolerance are well known in the art.
(§2) Modulation of activity of an immune cell, such as a T-cell, a B cell or a NK cell can be measured by determining a baseline value for a parameter of interest (e.g., cytokine secretion). […] A reference value then is obtained for T-cell activation after contacting or administering said Cbl-b inhibitor. The reference value is compared to the baseline value in order to determine the amount of T-cell activation due to contact or administration of the Cbl-b inhibitor or composition thereof. […] Immune cell activation can be assessed by measuring biological markers of activation such as increased cytokine secretion, increased cell surface expression of activation markers (e.g., cell surface markers), or increased phosphorylation of proteins in a downstream signaling pathway. The fold over baseline value that indicates immune cell activation can be determined for the parameter being tested and the conditions under which the immune cell were treated. For example, for measuring T-cell activation, a baseline value can be obtained from T-cells stimulated with anti-CD3 antibody in combination with anti-CD28 antibody, wherein the cells are not incubated with a Cbl-b inhibitor. […] A positive response for immune cell activation can then be determined by the obtained reference value. […]

The test system of assay [3] is T-cell. The assay can be described thus: IL-2 secretion from T-cells stimulated with anti-CD3 antibody alone (Biological Example 2). The class given is cell-based, human. Conditions: T-cell, read-out: IL-2 secretion Anti-CD3 stimulation; for fold induction at 1 µM: 1 μM Cbl-b inhibitor; for fold induction at 8 µM: 8 μM Cbl-b inhibitor.
Description: as §1
(§3) Modulation of activity of an immune cell, such as a T-cell, a B cell or a NK cell can be measured by determining a baseline value for a parameter of interest (e.g., cytokine secretion). […] A reference value then is obtained for T-cell activation after contacting or administering said Cbl-b inhibitor. The reference value is compared to the baseline value in order to determine the amount of T-cell activation due to contact or administration of the Cbl-b inhibitor or composition thereof. […] Immune cell activation can be assessed by measuring biological markers of activation such as increased cytokine secretion, increased cell surface expression of activation markers (e.g., cell surface markers), or increased phosphorylation of proteins in a downstream signaling pathway. The fold over baseline value that indicates immune cell activation can be determined for the parameter being tested and the conditions under which the immune cell were treated. For example, for measuring T-cell activation, a baseline value can be obtained from T-cells stimulated with anti-CD3 antibody in combination with anti-CD28 antibody, wherein the cells are not incubated with a Cbl-b inhibitor. […] A positive response for immune cell activation can then be determined by the obtained reference value.
(§4) In some embodiments, a baseline value can be obtained from T-cells stimulated with anti-CD3 antibody alone, wherein the cells are not incubated with a Cbl-b inhibitor. In some embodiments, a positive response for T-cell activation as measured by cytokine secretion (e.g., IL-2 secretion) by T-cells stimulated with anti-CD3 antibody alone in the presence of a Cbl-b inhibitor is at least 0.1-fold over the baseline value for cytokine secretion (e.g., IL-2 secretion) obtained from T-cells stimulated with anti-CD3 antibody alone in the absence of a Cbl-b inhibitor. In some embodiments, a positive response for T-cell activation as measured by surface marker expression (e.g., CD25 surface marker staining) by T-cells stimulated with anti-CD3 antibody alone in the presence of a Cbl-b inhibitor is at least 0.6-fold over the baseline value for surface marker expression (e.g., CD25 surface marker staining) obtained from T-cells stimulated with anti-CD3 antibody alone in the absence of a Cbl-b inhibitor.

For assay [4], the system named is T-cell. As to the kind of experiment: CD25 cell surface staining on T-cells co-stimulated with anti-CD3 and anti-CD28 antibody (Biological Example 2). The class given is cell-based, human. Conditions: Homo sapiens, T-cell, read-out: CD25 staining Anti-CD3/Anti-CD28 stimulation; for fold induction at 0.3 µM: 0.3 μM Cbl-b inhibitor; for fold induction at 1 µM: 1 μM Cbl-b inhibitor; for fold induction at 4 µM: 4 μM Cbl-b inhibitor.
Description: as §1, §2

Assay [5] concerns T-cell. The assay can be described thus: CD25 cell surface staining on T-cells stimulated with anti-CD3 antibody alone (Biological Example 2). The note with it: T-cell, read-out: CD25 staining Anti-CD3 stimulation; for fold induction at 1 µM: 1 μM Cbl-b inhibitor; for fold induction at 8 µM: 8 μM Cbl-b inhibitor. The class given is cell-based, human.
Description: as §1, §3, §4

Assay [6] addresses T1, Cbl-b. As to the kind of experiment: Cbl-b activity assay (Cbl-b inhibition assay), TR-FRET of Cbl-b interaction with UbcH5B-Ub. The class given is biochemical. The note with it: assay buffer with 100 mM NaCl, 60 nM Src kinase; read-out: Cbl-b activity IC50. Put shortly: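 UbcH5B (C85K) conjugated to N-terminally Bodipy-Fluorescein-labeled ubiquitin served as the fluorescent partner. After compound preincubation, Src kinase (60 nM) with 1 mM ATP and 5 mM MgCl2 (final) was added for 1.5 h, followed by a further 1 h incubation. Some values were obtained with 50 mM NaCl and 30 nM Src.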
(In TR-FRET formats the signal depends on donor and acceptor labels being close together.)

Setting [7] is: fold change over baseline, primary human total T-cells.
Setting [8] is: fold change over baseline (anti-CD3/anti-CD28 stimulated T-cells without inhibitor).
The mark [9] stands for this setting: Homo sapiens, fold change over baseline (anti-CD3/anti-CD28 stimulated T-cells without inhibitor).

As usually defined, the IC50 is the midpoint of a concentration-inhibition curve. As to `Cn1cnnc1[C@H]1CC[C@H]1c1cccc(N2Cc3c(cccc3C(F)(F)F)C2=O)c1` (racemic) [Compound 283, cis-2-(3-(2-(4-Methyl-4H-1,2,4-triazol-3-yl)cyclobutyl)phenyl)-4-(trifluoromethyl)isoindolin-1-one], the IC50 on Cbl-b [1] was not above 1000 nM; on Cbl-b [6] it was 301 to 1000 nM. In addition, the fold induction at 0.3 µM in the assay on T-cell [2] (setting [7]) and in the assay with T-cell [4] (setting [7]) was less than 1 in each case. Also, the fold induction at 1 µM with T-cell [2] (setting [7]) is 1.01 to 2.5; in the assay with T-cell [3] (setting [7]), less than 0.05; in the assay on T-cell [4] (setting [7]), less than 1; with T-cell [5] (setting [7]), less than 0.6. Moreover, the fold induction at 4 µM in the assay with T-cell [2] (setting [7]) was 1.01 to 2.5; with T-cell [4] (setting [7]), 1.01 to 1.3. Further, the fold induction at 8 µM with T-cell [3] (setting [7]) was 0.101 to 0.15; in the assay with T-cell [5] (setting [7]), less than 0.6.
As for `C[C@@H](c1cccc(N2Cc3c(cccc3C(F)(F)F)C2=O)c1)[C@@H](O)c1nncn1C` (racemic) [Compound 292, cis-2-(3-(1-Hydroxy-1-(4-methyl-4H-1,2,4-triazol-3-yl)propan-2-yl)phenyl)-4-(trifluoromethyl)isoindolin-1-one], the results for the IC50 at Cbl-b [1] and on Cbl-b [6] were not above 10000 nM and 1000 to 3000 nM, respectively. Further, the results for the fold induction at 0.3 µM with T-cell [2] (setting [7]) and in the assay with T-cell [4] (setting [7]) were 2.51 to 5 and 1.01 to 1.3, respectively. Besides, the fold induction at 1 µM in the assay on T-cell [2] (setting [7]) is 1.01 to 2.5; in the assay on T-cell [3] (setting [7]), less than 0.05; in the assay on T-cell [4] (setting [7]) it was less than 1; in the assay on T-cell [5] (setting [7]), less than 0.6. The fold induction at 4 µM was 1.01 to 2.5 with T-cell [2] (setting [7]) and 1.01 to 1.3 in the assay on T-cell [4] (setting [7]). The fold induction at 8 µM was less than 0.05 in the assay on T-cell [3] (setting [7]) and less than 0.6 with T-cell [5] (setting [7]).
As for `C[C@@H](c1cccc(N2Cc3c(cccc3C(F)(F)F)C2=O)c1)[C@H](F)c1nncn1C` (relative stereo) [Compound 293, trans-2-(3-(1-fluoro-1-(4-methyl-4H-1,2,4-triazol-3-yl)propan-2-yl)phenyl)-4-(trifluoromethyl)isoindolin-1-one], the values for the concentration for half-maximal inhibition (IC50) at Cbl-b [1] and on Cbl-b [6] were not above 500 nM and 100 to 300 nM, respectively. Moreover, the fold induction at 0.3 µM in the assay with T-cell [2] (setting [7]) fell in the range of 2.51 to 5; with T-cell [4] (setting [7]), 1.01 to 1.3. For the same compound, the fold induction at 1 µM with T-cell [2] (setting [7]) lay in the range of 2.51 to 5; with T-cell [3] (setting [7]), 0.101 to 0.15; with T-cell [4] (setting [7]) it was 1.01 to 1.3; with T-cell [5] (setting [7]) it was 0.601 to 0.8. Further, the fold induction at 4 µM is 2.51 to 5 with T-cell [2] (setting [7]) and 1.01 to 1.3 with T-cell [4] (setting [7]). For the same compound, the fold induction at 8 µM is more than 0.201 in the assay on T-cell [3] (setting [7]) and 0.801 to 1 in the assay on T-cell [5] (setting [7]).
For the compound `CO[C@@H]1CCN(Cc2cc3c(c(C(F)(F)F)c2)CN(c2cccc(C4(Cc5nncn5C)COC4)c2)C3=O)C[C@@H]1F` (relative stereo) [Example 621, 6-(((cis)-3-fluoro-4-methoxypiperidin-1-yl)methyl)-2-(3-(3-((4-methyl-4H-1,2,4-triazol-3-yl)methyl)oxetan-3-yl)phenyl)-4-(trifluoromethyl)isoindolin-1-one], the figures for the concentration for half-maximal inhibition (IC50) at Cbl-b [1] and at Cbl-b [6] were not above 100 nM and less than 100 nM, respectively. In addition, the fold induction at 0.3 µM was more than 7.5 in the assay with T-cell [2] (setting [8]) and 1.31 to 1.5 with T-cell [4] (setting [8]). The fold induction at 1 µM with T-cell [2] (setting [8]) was more than 7.5; in the assay on T-cell [3] (setting [9]), more than 0.201; in the assay on T-cell [4] (setting [8]), 1.31 to 1.5; in the assay on T-cell [5] (setting [9]), more than 1.
As to `C[C@@H]1CCN(Cc2cc3c(c(C(F)(F)F)c2)CN(c2cccc(C4(Cc5nncn5C)COC4)c2)C3=O)C[C@H]1F` (relative stereo) [Example 631, 6-((trans-3-fluoro-4-methylpiperidin-1-yl)methyl)-2-(3-(3-((4-methyl-4H-1,2,4-triazol-3-yl)methyl)oxetan-3-yl)phenyl)-4-(trifluoromethyl)isoindolin-1-one], the 50% inhibitory concentration (IC50) at Cbl-b [1] is not above 100 nM; on Cbl-b [6], less than 100 nM. The fold induction at 0.3 µM is more than 7.5 with T-cell [2] (setting [8]) and 1.31 to 1.5 with T-cell [4] (setting [8]). Further, the fold induction at 1 µM in the assay with T-cell [2] (setting [8]) was more than 7.5; with T-cell [3] (setting [9]), more than 0.201; in the assay with T-cell [4] (setting [8]) it was 1.51 to 1.75; in the assay with T-cell [5] (setting [9]), more than 1.
Turning to `Cc1c[nH]nc1C[C@H](C)c1cccc(N2Cc3c(cccc3C(F)(F)F)C2=O)c1` (single isomer, unassigned) [Compound 270a], the IC50 at Cbl-b [1] was not above 1000 nM; at Cbl-b [6], 301 to 1000 nM. Moreover, the fold induction at 0.3 µM in the assay with T-cell [2] (setting [7]) fell in the range of 1.01 to 2.5; with T-cell [4] (setting [7]), 1.01 to 1.3. For the same compound, the fold induction at 1 µM in the assay on T-cell [2] (setting [7]) is 1.01 to 2.5; in the assay with T-cell [3] (setting [7]), 0.101 to 0.15; in the assay on T-cell [4] (setting [7]) it was 1.01 to 1.3; in the assay on T-cell [5] (setting [7]), 0.601 to 0.8. The values for the fold induction at 4 µM in the assay on T-cell [2] (setting [7]) and with T-cell [4] (setting [7]) were 1.01 to 2.5 and 1.01 to 1.3, respectively. The results for the fold induction at 8 µM with T-cell [3] (setting [7]) and in the assay with T-cell [5] (setting [7]) were 0.151 to 0.2 and 0.801 to 1, respectively.
As for `C[C@H](Sc1nncn1C)c1cccc(NC(=O)c2ccc3ccccc3n2)c1` [Compound 9a], the half-inhibitory concentration (IC50) at Cbl-b [1] is not above 500 nM. Moreover, in the assay on T-cell [2] (setting [7]), the fold induction at 0.3 µM is 1.01 to 2.5, the fold induction at 1 µM fell in the range of 1.01 to 2.5 and the fold induction at 4 µM is 1.01 to 2.5. In addition, in the assay on T-cell [3] (setting [7]), the fold induction at 1 µM was less than 0.05 and the fold induction at 8 µM lay in the range of 0.051 to 0.1. Moreover, in the assay on T-cell [4] (setting [7]), the fold induction at 0.3 µM was in the range of 1.01 to 1.3, the fold induction at 1 µM lay within 1.01 to 1.3 and the fold induction at 4 µM was in the range of 1.01 to 1.3. In addition, in the assay with T-cell [5] (setting [7]), the fold induction at 1 µM lay within 0.601 to 0.8 and the fold induction at 8 µM was 0.601 to 0.8.
